Measurements reported in patent US10130615B2, “Benzomorphan analogs and the use thereof” (priority 2014, dated 2018).
Like-named read-outs stand apart in the source and are kept apart here.

What was measured:
μ-opioid receptor [1] = molecular target: T1, μ-opioid receptor (Homo sapiens, UniProt P35372); test: biochemical; design: purchased Perkin Elmer, Shelton, Conn; host or cells: HEK-293 or CHO; details: HEK-293 or CHO cells; for EC50: read-out: GTPγS μ EC50; for Emax: relative to DAMGO, read-out: GTPγS μ Emax
μ-opioid receptor [2] = molecular target: T1, μ-opioid receptor; test: cell-based; design: purchased Perkin Elmer, Shelton, Conn; details: U2OS cells; for Emax: read-out: β-Arr2 μ Emax; for EC50: read-out: β-Arr2 μ EC50
κ-opioid receptor [3] = molecular target: T2, κ-opioid receptor (Homo sapiens, UniProt P41145); test: κ-opioid receptor GTPγS functional assay, U2OS cells; type: biochemical; design: expressed in transfected cells; host or cells: U-2 OS; details: U2OS cells; for EC50: read-out: GTPγS κ EC50
Method: (§1) Plates were incubated for 30 min at a temperature of about 25° C. with shaking.

κ-opioid receptor [4] = molecular target: T2, κ-opioid receptor; test: κ-opioid receptor radioligand binding assay ([3H]-U69,593); design: expressed in transfected cells; host or cells: HEK-293
Method: κ-opioid Receptor Binding Assay Procedures: Membranes from recombinant HEK-293 cells expressing the human κ opioid receptor (κ) (cloned in house) were prepared by lysing cells in ice cold hypotonic buffer (2.5 mM MgCl2, 50 mM HEPES, pH 7.4) (10 mL/10 cm dish) followed by homogenization with a tissue grinder/Teflon pestle. Membranes were collected by centrifugation at 30,000×g for 15 min at 4° C. and pellets were resuspended in hypotonic buffer to a final concentration of 1-3 mg/mL. Protein concentrations were determined using the BioRad protein assay reagent with bovine serum albumen as standard. Aliquots of κ receptor membranes were stored at −80° C.
Radioligand dose displacement assays used 0.4 nM [^3H]-U69,593 (GE Healthcare, Piscataway, N.J.; 40 Ci/mmole) with 15 μg membrane protein (recombinant κ opioid receptor expressed in HEK 293 cells; in-house prep) in a final volume of 200 μl binding buffer (5% DMSO, 50 mM Trizma base, pH 7.4). Non-specific binding was determined in the presence of 10 μM unlabeled naloxone or U69,593. All reactions were performed in 96-well polypropylene plates for 1 hr at a temperature of about 25° C.

μ-opioid receptor [5] = molecular target: T1, μ-opioid receptor; test: μ-opioid receptor radioligand binding assay ([3H]-diprenorphine); design: purchased Perkin Elmer, Shelton, Conn; host or cells: HEK-293 or CHO; details: HEK-293 or CHO cells; read-out: Ki (nM) Opioid Receptor μ
Method: μ-opioid Receptor Binding Assay Procedures: Radioligand dose-displacement binding assays for μ-opioid receptors used 0.3 nM [^3H]-diprenorphine (Perkin Elmer, Shelton, Conn.), with […] membrane protein/well in a final volume of 500 μl binding buffer (10 mM MgCl2, 1 mM EDTA, 5% DMSO, 50 mM HEPES, pH 7.4). Reactions were carried out in the absence or presence of increasing concentrations of unlabeled naloxone. All reactions were conducted in 96-deep well polypropylene plates for 2 hr at room temperature. […] The data were analyzed using the one-site competition curve fitting functions in GraphPad PRISM™ v. 3.0 or higher (San Diego, Calif.), or an in-house function for one-site competition curve-fitting.

μ-opioid receptor [6] = molecular target: T1, μ-opioid receptor; test: μ-opioid receptor GTPγS functional assay, U2OS cells; details: for Emax: read-out: GTPγS μ Emax
κ-opioid receptor [7] = molecular target: T2, κ-opioid receptor; test: κ-opioid receptor [35S]GTPγS functional assay, HEK-293 or CHO cells; type: biochemical; design: expressed in transfected cells; host or cells: HEK-293; details: for Emax: relative to U69,593
Method: as §1

κ-opioid receptor [8] = molecular target: T2, κ-opioid receptor; test: κ-opioid receptor β-Arr2 activity response, U2OS cells; type: cell-based; design: expressed in transfected cells; host or cells: U-2 OS
[9] = HEK-293 or CHO cells, read-out: Ki (nM) Opioid Receptor κ
[10] = HEK-293 or CHO cells, read-out: GTPγS κ EC50
[11] = U2OS cells, read-out: β-Arr2 κ EC50

T1 sequence (P35372 whole entry, species assumed): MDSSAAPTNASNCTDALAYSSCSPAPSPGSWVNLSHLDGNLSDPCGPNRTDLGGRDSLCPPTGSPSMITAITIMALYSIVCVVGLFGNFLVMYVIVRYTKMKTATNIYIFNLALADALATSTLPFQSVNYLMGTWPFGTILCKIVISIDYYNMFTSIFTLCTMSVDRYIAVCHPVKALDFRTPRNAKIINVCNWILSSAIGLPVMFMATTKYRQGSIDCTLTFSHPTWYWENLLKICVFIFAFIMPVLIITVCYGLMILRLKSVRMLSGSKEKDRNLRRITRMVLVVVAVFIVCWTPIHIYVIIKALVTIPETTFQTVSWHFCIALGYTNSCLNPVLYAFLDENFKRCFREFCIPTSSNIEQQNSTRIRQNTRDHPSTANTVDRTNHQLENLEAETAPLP
T2 sequence (P41145 whole entry): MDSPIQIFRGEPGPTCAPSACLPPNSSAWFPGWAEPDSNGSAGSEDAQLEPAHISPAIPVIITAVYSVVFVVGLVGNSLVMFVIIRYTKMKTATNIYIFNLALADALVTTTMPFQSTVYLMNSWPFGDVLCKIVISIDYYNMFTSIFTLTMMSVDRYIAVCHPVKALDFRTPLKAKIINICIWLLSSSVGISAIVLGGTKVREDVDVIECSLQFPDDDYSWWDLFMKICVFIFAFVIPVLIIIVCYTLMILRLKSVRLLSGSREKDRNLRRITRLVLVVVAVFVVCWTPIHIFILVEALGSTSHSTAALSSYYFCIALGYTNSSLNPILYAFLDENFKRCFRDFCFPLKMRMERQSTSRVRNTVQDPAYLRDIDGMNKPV

Compound | EC50 (μ-opioid receptor [1]) [nM] | Emax (μ-opioid receptor [1]) [%] | Emax (μ-opioid receptor [2]) [%] | Emax (κ-opioid receptor [3]) [%] | EC50 (κ-opioid receptor [3]) [nM] | Ki (κ-opioid receptor [4]; [9]) [nM] | Ki (μ-opioid receptor [5]) [nM] | EC50 (μ-opioid receptor [6]) [nM] | Emax (μ-opioid receptor [6]) [%] | EC50 (κ-opioid receptor [7]; [10]) [nM] | Emax (κ-opioid receptor [7]; HEK-293 or CHO cells) [%] | Emax (κ-opioid receptor [8]; U2OS cells) [%] | EC50 (κ-opioid receptor [8]; [11]) [nM] | EC50 (μ-opioid receptor [2]) [nM] | Ki (κ-opioid receptor [4]) [nM] | EC50 (κ-opioid receptor [7]) [nM] | EC50 (κ-opioid receptor [8]) [nM]
CC(C)C[C@H](NCCCC[C@]12CCN(CC3CC3)[C@H](Cc3ccc(O)cc31)[C@@H]2C)C(=O)O [Compound 24, (4-((2R,6R,11R)-3-(cyclopropyl-methyl)-8-hydroxy-11-methyl-2,3,4,5-tetrahydro-2,6-methanobenzo[d]azocin-6(1H)-yl)butyl)-L-leucine] | 5.46 ± 0.51 | 19.5 ± 2.26 | -0.4 ± 0.6 | 98.3 ± 4.33 | 0.51 ± 0.072 | 0.55 ± 0.11 | 2.89 ± 0.63 | 1.94 ± 0.28 | 77.3 ± 3.18 | 9.32 ± 2.97 | 102 ± 5.57 | 54 ± 4.06 | 3.56 ± 0.91 |  |  |  | 
COC(=O)c1ccc(CC(=O)NCC[C@]23CCN(CC4CC4)[C@H](Cc4ccc(OC)cc42)[C@@H]3C)cc1 [Compound 30, methyl 4-(2-((2-((2R,6R,11R)-3-(cyclopropylmethyl)-8-methoxy-11-methyl-2,3,4,5-tetrahydro-2,6-methano-benzo[d]azocin-6(1H)-yl)ethyl)amino)-2-oxoethyl)benzoate] |  | 0 | 1 ± 0.5 | 104 ± 2.96 | 13.1 ± 1.48 | 6.18 ± 1.72 | 389 ± 124 | 230 ± 27.5 | 51 ± 3.51 | 259 ± 33.1 | 83 ± 7.77 | -1 |  |  |  |  | 
C[C@H]1[C@H]2Cc3ccc(O)cc3[C@]1(CCCC(N)=O)CCN2CC1CCC1 [Compound 29, 4-((2R,6R,11R)-3-(cyclobutylmethyl)-8-hydroxy-11-methyl-2,3,4,5-tetrahydro-2,6-methanobenzo[d]azocin-6(1H)-yl)butanamide] |  | 1 | -1.5 | 108 ± 1.2 | 0.39 ± 0.016 | 0.12 ± 0.019 | 1.82 ± 0.57 | 2.65 ± 0.89 | 41.3 ± 4.91 | 7.6 ± 1.67 | 87.7 ± 3.18 | 45 ± 3 | 2.06 ± 0.32 |  |  |  | 
COc1ccc2c(c1)[C@@]1(CCOCc3ccccc3)CCN(CC3CC3)[C@@H](C2)[C@H]1C [Compound 44, (2S,6R,11S)-6-(2-(benzyloxy)ethyl)-3-(cyclopropylmethyl)-8-methoxy-11-methyl-1,2,3,4,5,6-hexahydro-2,6-methanobenzo[d]azocine] |  |  |  | 79.3 ± 3.38 | 327 ± 50.5 | 118 ± 8.52 | 1840 ± 222 |  |  | 854 ± 240 | 32 ± 0.58 | 102 ± 11.6 | 10300 ± 1050 |  |  |  | 
COc1ccc2c(c1)[C@]1(CCNCC(=O)O)CCN(CC3CC3)[C@H](C2)[C@@H]1C [Compound 36, (2-((2R,6R,11R)-3-(cyclopropyl-methyl)-8-methoxy-11-methyl-2,3,4,5-tetrahydro-2,6-methanobenzo[d]azocin-6(1H)-yl)ethyl)glycine] | 798 ± 24.1 | 39 ± 1.53 |  |  |  | 133 ± 22.9 | 1020 ± 51.3 |  |  | 1980 ± 216 | 69 ± 6.24 |  |  |  |  |  | 
CC(C)[C@H](NCC[C@@]12CCN(CC3CC3)[C@@H](Cc3ccc(O)cc31)[C@H]2C)C(=O)O [Compound 42, (2-((2S,6S,11S)-3-(cyclopropylmethyl)-8-hydroxy-11-methyl-2,3,4,5-tetrahydro-2,6-methanobenzo[d]azocin-6(1H)-yl)ethyl)-L-valine] | 2390 ± 230 | 56 ± 2.52 |  |  |  | 2620 ± 729 | 4610 ± 551 |  |  |  |  |  |  |  |  |  | 
COc1ccc2c(c1)[C@]1(CCNC3(C(=O)O)CC3)CCN(CC3CC3)[C@H](C2)[C@@H]1C [Compound 34, 1-((2-((2R,6R,11R)-3-(cyclopropyl-methyl)-8-methoxy-11-methyl-2,3,4,5-tetrahydro-2,6-methanobenzo[d]azocin-6(1H)-yl)ethyl)amino)cyclopropane-1-carboxylic acid] | 2880 ± 310 | 70.3 ± 3.71 |  |  |  | 286 ± 2.93 | 1470 ± 177 |  |  | 7900 ± 2010 | 81.3 ± 10.2 |  |  |  |  |  | 
C[C@H]1[C@H]2Cc3ccc(O)cc3[C@]1(CCO)CCN2C [Compound 12, (2R,6S,11R)-6-(2-hydroxyethyl)-3,11-dimethyl-1,2,3,4,5,6-hexahydro-2,6-methanobenzo[d]azocin-8-ol] | 237 ± 36.2 | 58.2 ± 1.65 | 8.83 ± 0.44 |  |  |  |  |  |  |  | 37.1 ± 1.43 | 12.7 ± 1.57 |  | 386 ± 89.5 | 22.4 ± 3.57 | 344 ± 32.6 | 5520 ± 4650
C[C@H]1[C@H]2Cc3ccc(O)cc3[C@]1(CCNC(=O)[C@@H]1CCCCN1)CCN2CC1CC1 [Compound 11, (S)-N-(2-((2R,6R,11R)-3-(cyclopropyl-methyl)-8-hydroxy-11-methyl-2,3,4,5-tetrahydro-2,6-methanobenzo[d]azocin-6(1H)-yl)ethyl)piperidine-2-carboxamide] | 18.3 ± 5.58 | 23 ± 1.38 | -1.5 |  |  | 0.17 ± 0.044 |  |  |  | 1.04 ± 0.059 | 84 ± 3.63 |  |  |  |  |  | 
C[C@H]1[C@H]2Cc3ccc(O)cc3[C@]1(CCN1CCS(=O)(=O)CC1)CCN2C [Compound 10, 4-(2-((2R,6R,11R)-8-hydroxy-3,11-dimethyl-2,3,4,5-tetrahydro-2,6-methanobenzo[d]azocin-6(1H)-yl)-ethyl)thiomorpholine 1,1-dioxide] | 133 ± 16.1 | 51 ± 1.08 | 2.83 ± 0.27 |  |  | 77 ± 2.02 |  |  |  | 516 ± 33.9 | 26.6 ± 1.52 | 17.2 ± 0.97 | 4660 ± 1720 | 129 ± 34.4 |  |  | 
COC(=O)[C@@H](NCC[C@@]12CCN(CC3CC3)[C@@H](Cc3ccc(OC)cc31)[C@H]2C)C(C)C [Compound 37, methyl (2-((2S,6S,11S)-3-(cyclopropyl-methyl)-8-methoxy-11-methyl-2,3,4,5-tetrahydro-2,6-methanobenzo[d]azocin-6(1H)-yl)ethyl)-L-valinate] | 9390 ± 820 | 19.3 ± 2.33 |  |  |  | 8990 ± 2060 | 13900 |  |  |  |  |  |  |  |  |  | 
COc1ccc2c(c1)[C@]1(CCNC(=O)CN)CCN(CC3CC3)[C@H](C2)[C@@H]1C [Compound 33, 2-amino-N-(2-((2R,6R,11R)-3-(cyclopropylmethyl)-8-methoxy-11-methyl-2,3,4,5-tetrahydro-2,6-methanobenzo[d]azocin-6(1H)-yl)ethyl)acetamide] | 356 ± 111 | 92.7 ± 6.57 |  | 108 ± 3.38 | 4.93 ± 1.06 | 1.04 ± 0.071 | 936 ± 189 | 1170 ± 247 | 56 ± 3.06 | 61.2 ± 20.1 | 113 ± 1 | 42 ± 4 | 12.8 ± 4.1 |  |  |  | 
COc1ccc2c(c1)[C@]1(CCN[C@@H](C)C(=O)O)CCN(CC3CC3)[C@H](C2)[C@@H]1C [Compound 40, (2-((2R,6R,11R)-3-(cyclopropyl-methyl)-8-methoxy-11-methyl-2,3,4,5-tetrahydro-2,6-methanobenzo[d]azocin-6(1H)-yl)ethyl)-L-ananine] | 1660 ± 245 | 77.7 ± 6.12 |  | 115 ± 1.73 | 542 ± 13.1 | 248 ± 95.7 | 871 ± 211 |  |  | 7890 ± 1340 | 86.3 ± 7.54 |  |  |  |  |  | 
